Where two headings read alike, the source gives them in different places.
Key:
Olfr545 = assay: dual-luciferase (cAMP/CREB reporter) ligand screen, Olfr545 in HEK293T cells; assay type: cell-based, mouse; parameters: key to Olfr545 response in dual-luciferase assay: ‘+’ or ‘–‘ in each column indicates if the olfactory receptor responded or had no effect to that specific chemical; -: ‘+’ or ‘–‘ in each column indicates if the olfactory receptor responded or had no effect to that specific chemical
Olfr31 = target: T1, Olfr31 (Mus musculus, UniProt Q3KPA7); assay: dual-luciferase (cAMP/CREB reporter) ligand screen, Olfr31 in HEK293T cells; assay type: cell-based
T1 construct: expressed in transfected cells; host or cells: HEK293T, co-transfected with RTP1S
T1 sequence (Q3KPA7 1-317): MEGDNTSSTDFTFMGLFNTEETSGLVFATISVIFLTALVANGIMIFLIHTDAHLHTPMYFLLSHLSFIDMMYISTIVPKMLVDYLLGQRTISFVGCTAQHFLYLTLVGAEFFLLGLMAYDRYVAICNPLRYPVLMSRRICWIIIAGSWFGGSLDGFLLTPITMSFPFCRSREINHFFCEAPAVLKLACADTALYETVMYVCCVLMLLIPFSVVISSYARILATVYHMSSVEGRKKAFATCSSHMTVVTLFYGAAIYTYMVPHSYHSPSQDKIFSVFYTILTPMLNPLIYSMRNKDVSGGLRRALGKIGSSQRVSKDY

Olfr99 = assay: dual-luciferase (cAMP/CREB reporter) ligand screen, Olfr99 in HEK293T cells; assay type: cell-based, mouse; parameters: key: ‘+’ or ‘–‘ in each column indicates if the olfactory receptor responded or had no effect to that specific chemical; -: ‘+’ or ‘–‘ in each column indicates if the olfactory receptor responded or had no effect to that specific chemical
Olfr691 = target: T2, Olfr691 (Mus musculus, UniProt Q8VGW5); assay: dual-luciferase (cAMP/CREB reporter) ligand screen, Olfr691 in HEK293T cells; assay type: cell-based; settings: for Relative response (% of 4-pentenoate response) at 500 µM: HEK-293T, 4 h, 0.5 mM ligand, normalized to the response of Olfr691 to the strongest ligand
T2 construct: Lucy (N); expressed in transfected cells; host or cells: HEK293T, co-transfected with RTP1S
T2 sequence (Q8VGW5 1-322): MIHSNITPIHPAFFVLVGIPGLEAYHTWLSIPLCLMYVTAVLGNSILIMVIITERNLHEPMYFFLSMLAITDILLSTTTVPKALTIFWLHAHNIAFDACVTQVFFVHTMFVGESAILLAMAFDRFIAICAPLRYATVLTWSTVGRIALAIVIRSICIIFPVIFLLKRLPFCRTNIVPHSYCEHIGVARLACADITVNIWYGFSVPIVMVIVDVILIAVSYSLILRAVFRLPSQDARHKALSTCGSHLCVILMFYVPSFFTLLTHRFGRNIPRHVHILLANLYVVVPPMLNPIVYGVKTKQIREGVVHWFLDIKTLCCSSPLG

Olfr693 = assay: dual-luciferase (cAMP/CREB reporter) ligand screen, Olfr693 in HEK293T cells; assay type: cell-based, mouse; parameters: key: ‘+’ or ‘–‘ in each column indicates if the olfactory receptor responded or had no effect to that specific chemical; -: ‘+’ or ‘–‘ in each column indicates if the olfactory receptor responded or had no effect to that specific chemical
[1] = chemicals tested individually, screened at 500uM (* also at 100uM)

Row | Compound | Olfr545 response in dual-luciferase assay (Olfr545; [1]) | Olfr31 response in dual-luciferase assay (Olfr31; [1]) | Olfr99 response in dual-luciferase assay (Olfr99; [1]) | Olfr691 response in dual-luciferase assay (Olfr691; [1]) | Olfr693 response in dual-luciferase assay (Olfr693; [1]) | Olfr545 response in dual-luciferase assay (Olfr545) | Olfr31 response in dual-luciferase assay (Olfr31) | Olfr99 response in dual-luciferase assay (Olfr99) | Olfr691 response in dual-luciferase assay (Olfr691) | Olfr693 response in dual-luciferase assay (Olfr693) | Olfr691 response (in words) (Olfr691; luciferase assay, co-expressed with RTP1S) | Olfr691 response (in words) (Olfr691) | Relative response (% of 4-pentenoate response) at 500 µM (Olfr691) [%]
1 | CCCCCOC(=O)CCCCC [Amylhexanoate] | - | - | - | - | - |  |  |  |  |  |  |  | 
2 | COc1ccccc1 [Anisole] | - | - | - | - | - |  |  |  |  |  |  |  | 
3 | CC12CCC(CC1=O)C2(C)C (centres unmarked) [Camphor] | - | - | - | - | - |  |  |  |  |  |  |  | 
4 | C=C(C)C1CC=C(C)C(=O)C1 (centres unmarked) [Carvone] | - | - | - | - | - |  |  |  |  |  |  |  | 
5 | O=C(O)C1CCCCC1 [Cyclohexanecarboxylic acid] | - | - | - | - | - |  |  |  |  |  |  |  | 
6 | C[C@H](CCC(=O)O)[C@H]1CC[C@H]2[C@@H]3CC[C@@H]4C[C@H](O)CC[C@]4(C)[C@H]3C[C@H](O)[C@]12C [Deoxyxholic acid] | - | - | - | - | - |  |  |  |  |  |  |  | 
7 | CC(C)=CCC/C(C)=C/CO [Geraniol] | - | - | - | - | - |  |  |  |  |  |  |  | 
8 | CC(C)C=O [Isobutyraldehyde] | - | - | - | - | - |  |  |  |  |  |  |  | 
9 | C=CC(C)(CCC=C(C)C)OC(C)=O (centres unmarked) [Linalyl acetate] | - | - | - | - | - |  |  |  |  |  |  |  | 
10 | CC(C)(O)CCCC1=CCC(C=O)CC1 (centres unmarked) [Lyral] | - | - | - | - | - |  |  |  |  |  |  |  | 
11 | O=C(O)CC(=O)O [Malonate] | - | - | - | - | - |  |  |  |  |  |  |  | 
12 | O=C(O)C(=O)O [Oxalate] | - | - | - | - | - |  |  |  |  |  |  |  | 
13 | CC(=O)C=O [Pyruvaldehyde] | - | - | - | - | - |  |  |  |  |  |  |  | 
14 | [Na+].[Na+].[S-2] [Sodium Sulfide] |  |  |  |  |  | - | - | - | - | - |  |  | 
15 | O=C(O)CCC(=O)O [Succinate] | - | - | - | - | - |  |  |  |  |  |  |  | 
16 | C[N+](C)(C)[O-] [Trimethylamine N-oxide] | - | - | - | - | - |  |  |  |  |  |  |  | 

Row | Compound | Olfr545 response in dual-luciferase assay (Olfr545; [1]) | Olfr31 response in dual-luciferase assay (Olfr31; [1]) | Olfr99 response in dual-luciferase assay (Olfr99; [1]) | Olfr691 response in dual-luciferase assay (Olfr691; [1]) | Olfr693 response in dual-luciferase assay (Olfr693; [1]) | Olfr545 response in dual-luciferase assay (Olfr545) | Olfr31 response in dual-luciferase assay (Olfr31) | Olfr99 response in dual-luciferase assay (Olfr99) | Olfr691 response in dual-luciferase assay (Olfr691) | Olfr693 response in dual-luciferase assay (Olfr693) | Olfr691 response (in words) (Olfr691; luciferase assay, co-expressed with RTP1S) | Olfr691 response (in words) (Olfr691) | Relative response (% of 4-pentenoate response) at 500 µM (Olfr691) [%]
17 | O=c1[nH]c(=O)c2[nH]c(=O)[nH]c2[nH]1 [Uric acid] | - | - | - | - | - |  |  |  |  |  |  |  | 
18 | CC(=O)O [acetic acid] | - | - | - | - | - |  |  |  |  |  | not including |  | 
19 | C=CCSCC=C [allyl sulfide] | - | - | - | - | - |  |  |  |  |  |  |  | 
20 | CCCCCOC(C)=O [amyl acetate] | - | - | - | - | - |  |  |  |  |  |  |  | 
21 | O=Cc1ccccc1 [benzaldehyde] | - | - | - | - | - |  |  |  |  |  |  |  | 
22 | O=C(O)c1ccccc1 [benzoate] | - | - | - | + | - |  |  |  |  |  |  | induced Olfr691 responses | 34 ± 1
23 | CCCC(=O)O [butyrate] | - | - | - | + | - |  |  |  |  |  |  |  | 55 ± 2.5
24 | Cn1c(=O)c2c(ncn2C)n(C)c1=O [caffeine, reference compound] | - | - | - | - | - |  |  |  |  |  |  |  | 
25 | CCCCCC(=O)O [caproate] | - | - | - | + | - |  |  |  |  |  |  |  | 80 ± 1.4
26 | O=C/C=C/c1ccccc1 [cinnamaldehyde] | - | - | - | - | - |  |  |  |  |  |  |  | 
27 | O=C(O)CC(O)(CC(=O)O)C(=O)O [citric acid] | - | - | - | - | - |  |  |  |  |  |  |  | 
28 | C/C=C/C(=O)O [crotonic acid] | - | - | - | + | - |  |  |  |  |  |  |  | 39 ± 3
29 | OC1CCCCCC1 [cycloheptanol] | - | - | - | - | - |  |  |  |  |  |  |  | 
30 | O=C1CCCCC1 [cyclohexanone] | - | - | - | - | - |  |  |  |  |  |  |  | 
31 | CCCCCCCCCCCC(=O)O [dodecanoic acid] | - | - | - | - | - |  |  |  |  |  |  |  | 

Source: PMC4207771, “Identification and Characterization of Novel Renal Sensory Receptors” (PLoS ONE, 2014)
